This is an account of results in patent US8735417B2, “Aminopyrimidines as Syk inhibitors” (Merck Sharp & Dohme Corp., priority 2009, dated 2014).

The term IC50 denotes the concentration that gives 50% inhibition.

This experiment addresses T1, recombinant human GST-SYK (Homo sapiens, UniProt P43405).
T1 construct: purchased Carna Biosciences 08-176
The experiment in a line: Homogeneous Time-Resolved Fluorescence (HTRF) assay for the recombinant human SYK enzyme. The class given is biochemical. The following applies: recombinant human GST-SYK 5 pM, ATP 25 μM, 10-dose titration; read-out: rhSYK Activity (IC50). The essentials: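 GST-hSYK (5 pM) preincubated 10 min at room temperature with inhibitor (0.1% DMSO) in Tris pH 7.5 buffer; reaction started with 250 nM biotinylated peptide, 5 mM Mg and 25 μM ATP, 45 min. EDTA quench with Eu-anti-phosphotyrosine antibody and SA-APC; HTRF read after 30 min.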
For orientation: Time-resolved FRET reads energy transfer from a long-lived donor to a nearby acceptor.
On to `CCC(CO)Nc1ncc(-c2cccc(Nc3nccc(C(F)(F)F)n3)c2)s1` (centres unmarked) [Example 10], for which the IC50 was not above 100 nM.

As to `O[C@@H]1CN(c2ncc(-c3cccc(Nc4nccc(C(F)(F)F)n4)c3)s2)C[C@@H]1O` [Example 157], the half-maximal inhibitory concentration (IC50) is not above 100 nM.

Take `Cc1cc(Nc2nccc(C(F)(F)F)n2)cc(-c2cnc(N3CC4CNC(CO)C4C3)s2)c1` (centres unmarked) [Example 165]: the IC50 is not above 100 nM.

Turning to `OCC1C2CN(c3ncc(-c4cccc(Nc5nccc(C(F)(F)F)n5)c4)s3)CC12` (centres unmarked) [Example 171], the IC50 was not above 100 nM.

For the compound `CCCC[C@@H](CO)Nc1ncc(-c2cccc(Nc3nccc(C(F)(F)F)n3)c2)s1` [Example 74], the IC50 was not above 100 nM.

With `Cc1cc(Nc2nccc(C(F)(F)F)n2)cc(-c2cnc(NCc3cccnc3)s2)c1` [Example 85], the IC50 was not above 100 nM.

Regarding `Cc1cc(Nc2nccc(OCCO)n2)cc(-c2cnc(N3CCCNC(=O)C3)s2)c1` [Example 218], the IC50 is not above 100 nM.

For `Cc1cc(Nc2nccc(OC3CCNCC3)n2)cc(-c2cnc(N3CCCNC(=O)C3)s2)c1` [Example 215, 4-[5-(3-methyl-5-{[4-(piperidin-4-yloxy)pyrimidin-2-yl]amino}phenyl)-1,3-thiazol-2-yl]-1,4-diazepan-2-one], the IC50 was not above 100 nM.

With `OCC1CCN(c2ncc(-c3cccc(Nc4nccc(C(F)(F)F)n4)c3)s2)CC1` [Example 130], the concentration for half-maximal inhibition (IC50) is not above 100 nM.

Consider `OCCN(CCO)c1ncc(-c2cc(Nc3nccc(C(F)(F)F)n3)cc(N3CCOCC3)c2)s1` [Example 194, 2,2′-({5-[3-(morphpholin-4-yl)-5-{[4-(trifluoromethyl)pyrimidin-2-yl]amino}phenyl]-1,3-thiazol-2-yl}imino)diethanol], for which the IC50 is not above 100 nM.

Turning to `FC(F)(F)c1ccnc(Nc2cccc(-c3cnc(NCCc4c[nH]cn4)s3)c2)n1` [Example 35], the IC50 is not above 100 nM.

With `FC(F)(F)c1ccnc(Nc2cccc(-c3cnc(NCC4CCOCC4)s3)c2)n1` [Example 61], the IC50 is not above 100 nM.

For `FC(F)(F)c1ccnc(Nc2cccc(-c3cnc(N4CCOC(C(F)(F)F)C4)s3)c2)n1` (centres unmarked) [Example 121], the IC50 was in the range of 100 to 1000 nM.

Regarding `CN(Cc1ccccn1)c1ncc(-c2cccc(Nc3nccc(C(F)(F)F)n3)c2)s1` [Example 33], the IC50 was not above 100 nM.

On to `CN(CCO)c1ncc(-c2cc(N)cc(Nc3nccc(C(F)(F)F)n3)c2)s1` [Example 189], for which the IC50 is not above 100 nM.

Turning to `Cc1cc(Nc2nccc(C3CCC3)n2)cc(-c2cnc(N3CCCNC(=O)C3)s2)c1` [Example 195], the IC50 is not above 100 nM.

Regarding `Cc1cc(Nc2nccc(SC(C)C)n2)cc(-c2cnc(N3CCCNC(=O)C3)s2)c1` [Example 219], the IC50 was not above 100 nM.

With `CCC(CO)Nc1ncc(-c2cc(C)cc(Nc3nccc(C(F)(F)F)n3)c2)s1` (centres unmarked) [Example 84], the IC50 was not above 100 nM.

As for `Cc1cc(CNc2ncc(-c3cccc(Nc4nccc(C(F)(F)F)n4)c3)s2)n(C)n1` [Example 69], the IC50 was not above 100 nM.

Take `Cc1cc(Nc2nccc(C(F)(F)F)n2)cc(-c2cnc(NCCc3ncn[nH]3)s2)c1` [Example 106]: the IC50 was not above 100 nM.

In the case of `Cc1cc(Nc2nccc(C(F)(F)F)n2)cc(-c2cnc(NCCc3cscn3)s2)c1` [Example 110], the IC50 was not above 100 nM.

For `C=CCN(CC=C)c1ncc(-c2cccc(Nc3nccc(C(F)(F)F)n3)c2)s1` [Example 25], the IC50 was not above 100 nM.

Turning to `Cc1cc(Nc2nccc(C3CCCCC3)n2)cc(-c2cnc(N3CCCNC(=O)C3)s2)c1` [Example 196, 4-(5-{3-[(4-cyclohexylpyrimidin-2-yl)amino]-5-methylphenyl}-1,3-thiazol-2-yl)-1,4-diazepan-2-one], the 50% inhibitory concentration (IC50) is not above 100 nM.

Take `CCCCN(CCO)c1ncc(-c2cccc(Nc3nccc(C(F)(F)F)n3)c2)s1` [Example 6]: the IC50 was not above 100 nM.

Take `OC(CNc1ncc(-c2cccc(Nc3nccc(C(F)(F)F)n3)c2)s1)C(F)F` (centres unmarked) [Example 13]: the IC50 was not above 100 nM.

In the case of `FC(F)(F)c1ccnc(Nc2cccc(-c3cnc(NC4CCCC4)s3)c2)n1` [Example 43], the IC50 is 100 to 1000 nM.
